# The SangsterLogP compilation
# What was measured:
# [1] = method code SF, from DOI: 10.1021/jm00088a007, PMID: 1588555; details: pH 7.4
# [2] = method code SF-HPLC, from DOI: 10.1023/a:1016059008464, PMID: 8899834
# [3] = method code SF, from DOI: 10.3139/113.110173
# [4] = method code SF-HPLC, from DOI: 10.1002/jps.2600830805, PMID: 7983590; details: pH 12.2
# [5] = method code SF-HPLC, from DOI: 10.1016/j.ijpharm.2013.10.039, PMID: 24184034; details: pH 7.0
structure (smiles),measurement,setting,value
CCCC[C@H](O[C@@H](Cc1ccccc1)C(=O)N1CCC(OCOC)CC1)C(=O)NC(CC1CCCCC1)C(O)CC(C(=O)NCCCN1CCOCC1)C(C)C (stereo partly specified),logD,[1],4.3
CC(C)CCC[C@@H](C)[C@H]1CC[C@H]2[C@@H]3CC[C@H]4C[C@@H](CCC=C(c5cc(Cl)c(O)c(C(=O)O)c5)c5cc(Cl)c(O)c(C(=O)O)c5)CC[C@]4(C)[C@H]3CC[C@]12C,logP,[2],6.94
Cc1ccccc1NC(=O)Nc1ccc(CC(=O)N[C@@H](CCCCNC(=O)/C=C/c2cccnc2)C(=O)N[C@@H](CCCC(=O)O)C(=O)NC2(C(N)=O)CCCCC2)cc1,logP,,3.26
CCCCCCCCCCCOCCOCCOCCOCCOCCOCCOCCOCCOCCOCCOCCOCCOCCOCCOCCOCCOCCOCCOCCOCCOCCOCCOCCOCCOCCOCCOCCOCCO,logP,[3],0.31
CCCCC(NC(C)=O)C(=O)NC1NCCCCC(C(N)=O)NC(=O)C(Cc2c[nH]c3ccccc23)NC(=O)C(CCCC(=N)N)NC(=O)C(Cc2ccccc2)NC(=O)C(Cc2cnc[nH]2)NC1=O (stereo unspecified),logD,[4],1.1
CC(=O)O[C@@H]1C(=O)[C@]23C[C@H]2C[C@H]2OC[C@@]2(OC(C)=O)[C@H]3[C@H](OC(=O)c2ccccc2)[C@]2(O)C[C@H](OC(=O)[C@H](O)[C@@H](NC(=O)OC(C)(C)C)c3ccccc3)C(C)=C1C2(C)C,logD,[5],2.06
